Read-outs that look alike come from different tables or passages of the source.
Legend:
CK1δ = CK1δ (Homo sapiens, UniProt P48730); assay: CK1δ kinase assay (Caliper LabChip electrophoretic separation of fluoresceinated peptide substrate and product); type: biochemical; details: 200 pM CK1δ, 50 μM ATP, 1.5 μM peptide, 22 hours at room temperature
Experimental: (§1) CK1ε and CK1δ Kinase Assays
(§2) The kinase assay was performed in V-bottom 384-well plates. […] The reaction was incubated at room temperature for 22 hours and terminated by adding 45 μl of 35 mM EDTA to each sample. The reaction mixture was analyzed on the Caliper LABCHIP®3000 (Caliper, Hopkinton, Mass.) by electrophoretic separation of the unphosphorylated substrate and phosphorylated product. […] Compounds were dissolved at 10 mM in dimethylsulfoxide (DMSO) and evaluated at eleven concentrations. IC50 values were derived by non-linear regression analysis.

CK1ε = CK1ε (Homo sapiens, UniProt P49674); assay: CK1ε kinase assay (Caliper LabChip electrophoretic separation of fluoresceinated peptide substrate and product); type: biochemical; details: 200 pM CK1ε, 50 μM ATP, 1.5 μM peptide, 22 hours at room temperature
Experimental: as §1, §2

Sequence of CK1δ (P48730 whole entry): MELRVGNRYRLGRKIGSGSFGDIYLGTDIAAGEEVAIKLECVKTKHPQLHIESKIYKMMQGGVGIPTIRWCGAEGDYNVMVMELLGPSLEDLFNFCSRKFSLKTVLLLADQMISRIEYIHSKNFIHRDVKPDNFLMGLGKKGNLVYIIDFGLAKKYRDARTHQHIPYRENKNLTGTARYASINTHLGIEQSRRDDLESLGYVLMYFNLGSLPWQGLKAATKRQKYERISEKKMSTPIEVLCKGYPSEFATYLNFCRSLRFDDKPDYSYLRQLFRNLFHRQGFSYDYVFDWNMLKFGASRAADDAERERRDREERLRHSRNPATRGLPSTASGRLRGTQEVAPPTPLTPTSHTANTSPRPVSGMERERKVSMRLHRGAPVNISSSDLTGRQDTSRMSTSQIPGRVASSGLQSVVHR
Sequence of CK1ε (P49674 whole entry): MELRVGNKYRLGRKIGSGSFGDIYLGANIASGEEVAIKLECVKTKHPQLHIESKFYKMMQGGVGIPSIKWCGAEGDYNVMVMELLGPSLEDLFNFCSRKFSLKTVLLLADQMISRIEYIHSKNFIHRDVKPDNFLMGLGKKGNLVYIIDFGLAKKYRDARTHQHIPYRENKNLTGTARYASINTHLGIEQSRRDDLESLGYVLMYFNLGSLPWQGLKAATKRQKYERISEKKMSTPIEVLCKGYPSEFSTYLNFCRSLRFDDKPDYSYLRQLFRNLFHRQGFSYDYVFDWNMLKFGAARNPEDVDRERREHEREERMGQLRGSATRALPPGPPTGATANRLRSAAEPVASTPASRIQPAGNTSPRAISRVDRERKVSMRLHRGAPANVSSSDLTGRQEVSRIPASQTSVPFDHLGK

`NC(=O)c1c(-c2ccc(F)c(Cl)c2)nn2c1CN(C(=O)NC1CC3(C1)CC3(F)F)CC2` (single isomer, unassigned) [Compound 321, 2-(3-Chloro-4-fluorophenyl)-N^5-(1,1-difluorospiro[2.3]hexan-5-yl)-6,7-dihydropyrazolo[1,5-a]pyrazine-3,5(4H)-dicarboxamide] gave an IC50 (CK1δ; read-out: CK1δ IC50 range) of 0.01 to 10 nM and an IC50 (CK1ε; read-out: CK1ε IC50 range) of 0.01 to 10 nM.

In the case of `NC(=O)c1c(-c2cccc(Cl)c2)nn2c1CN(C(=O)NC1CC3(C1)CC3(F)F)CC2` (single isomer, unassigned) [Compound 323, 2-(3-Chlorophenyl)-N^5-(1,1-difluorospiro[2.3]hexan-5-yl)-6,7-dihydropyrazolo[1,5-a]pyrazine-3,5(4H)-dicarboxamide], the IC50 (CK1δ; read-out: CK1δ IC50 range) is reported as 0.01 to 10 nM and the IC50 (CK1ε; read-out: CK1ε IC50 range) is reported as 0.01 to 10 nM.

`NC(=O)c1c(-c2cccc(Cl)c2)nn2c1CN(C(=O)Nc1ccc(OC(F)(F)F)cc1)CC2` [Compound 162, 2-(3-Chlorophenyl)-N^5-(4-(trifluoromethoxy)phenyl)-6,7-dihydropyrazolo[1,5-a]pyrazine-3,5(4H)-dicarboxamide] gave an IC50 (CK1δ; read-out: CK1δ IC50 range) of 0.01 to 10 nM and an IC50 (CK1ε; read-out: CK1ε IC50 range) of 0.01 to 10 nM.

`CC(C)(C)NC(=O)N1Cc2c(C(N)=O)c(-c3ccc(F)c(Cl)c3)nn2C(C(=O)NC2CC2)C1` (centres unmarked) [Compound A24, N^5-(tert-Butyl)-2-(3-chloro-4-fluorophenyl)-N^7-cyclopropyl-6,7-dihydropyrazolo[1,5-a]pyrazine-3,5,7(4H)-tricarboxamide] showed an IC50 (CK1δ; read-out: CK1δ IC50 range) of 100 to 2000 nM and an IC50 (CK1ε; read-out: CK1ε IC50 range) of 10 to 100 nM.

`CC1(NC(=O)N2CCn3nc(-c4ccc(F)c(Cl)c4)c(C(N)=O)c3C2)CC2(C1)CC2(F)F` (single isomer, unassigned) [Compound 327, 2-(3-Chloro-4-fluorophenyl)-N5-(1,1-difluoro-5-methylspiro[2.3]hexan-5-yl)-6,7-dihydropyrazolo[1,5-a]pyrazine-3,5(4H)-dicarboxamide] showed an IC50 (CK1δ; read-out: CK1δ IC50 range) of 0.01 to 10 nM and an IC50 (CK1ε; read-out: CK1ε IC50 range) of 0.01 to 10 nM.

With `NC(=O)c1c(-c2ccc(F)c(Cl)c2)nn2c1CN(C(=O)NC13CCC(F)(CC1)C3)CC2` [Compound A137, 2-(3-Chloro-4-fluorophenyl)-N^5-(4-fluorobicyclo[2.2.1]heptan-1-yl)-6,7-dihydropyrazolo[1,5-a]pyrazine-3,5(4H)-dicarboxamide] the IC50 (CK1δ; read-out: CK1δ IC50 range) was 0.01 to 10 nM and the IC50 (CK1ε; read-out: CK1ε IC50 range) was 0.01 to 10 nM.

`COCC(C)(C)NC(=O)N1CCn2nc(-c3cccc(Cl)c3)c(C(N)=O)c2C1` [Compound A47, 2-(3-Chlorophenyl)-N^5-(1-methoxy-2-methylpropan-2-yl)-6,7-dihydropyrazolo[1,5-a] pyrazine-3,5(4H)-dicarboxamide] gave an IC50 (CK1δ; read-out: CK1δ IC50 range) of 0.01 to 10 nM and an IC50 (CK1ε; read-out: CK1ε IC50 range) of 0.01 to 10 nM.

`CC1CN(C(=O)NC(C)(C)C)Cc2c(C(N)=O)c(-c3ccc(Cl)c(Cl)c3)nn21` (centres unmarked) [Compound A33, N^5-(tert-Butyl)-2-(3,4-dichlorophenyl)-7-methyl-6,7-dihydropyrazolo[1,5-a]pyrazine-3,5(4H)-dicarboxamide] was tested, and the IC50 (CK1δ; read-out: CK1δ IC50 range) was 0.01 to 10 nM and the IC50 (CK1ε; read-out: CK1ε IC50 range) was 0.01 to 10 nM.

In the case of `CC1(NC(=O)N2CCn3nc(-c4ccc(Cl)c(Cl)c4)c(C(N)=O)c3C2)CC2(C1)CC2(F)F` (single isomer, unassigned) [Compound 329, 2-(3,4-Dichlorophenyl)-N^5-(1,1-difluoro-5-methylspiro[2.3]hexan-5-yl)-6,7-dihydropyrazolo[1,5-a]pyrazine-3,5(4H)-dicarboxamide], the IC50 (CK1δ; read-out: CK1δ IC50 range) is reported as 0.01 to 10 nM and the IC50 (CK1ε; read-out: CK1ε IC50 range) is reported as 0.01 to 10 nM.

In the case of `NC(=O)c1c(-c2ccc(F)c(Cl)c2)nn2c1CN(C(=O)NC13CCC(c4ccccc4)(CC1)CC3)CC2` [Compound A53, 2-(3-Chloro-4-fluorophenyl)-N^5-(4-phenylbicyclo[2.2.2]octan-1-yl)-6,7-dihydropyrazolo[1,5-a]pyrazine-3,5(4H)-dicarboxamide], the IC50 (CK1δ; read-out: CK1δ IC50 range) is reported as 0.01 to 10 nM and the IC50 (CK1ε; read-out: CK1ε IC50 range) is reported as 0.01 to 10 nM.

For `CS(=O)(=O)[C@H]1C[C@@H](NC(=O)N2CCn3nc(-c4ccc(Cl)c(Cl)c4)c(C(N)=O)c3C2)C1` [Compound 274, 2-(3,4-Dichlorophenyl)-N^5-((1s,3s)-3-(methylsulfonyl)cyclobutyl)-6,7-dihydropyrazolo[1,5-a] pyrazine-3,5(4H)-dicarboxamide], the IC50 (CK1δ; read-out: CK1δ IC50 range) was 0.01 to 10 nM and the IC50 (CK1ε; read-out: CK1ε IC50 range) was 0.01 to 10 nM.

Work on `CC1(NC(=O)N2CCn3nc(-c4cccc(Cl)c4)c(C(N)=O)c3C2)CC2(C1)CC2(F)F` (single isomer, unassigned) [Compound 331, 2-(3-Chlorophenyl)-N^5-(1,1-difluoro-5-methylspiro[2.3]hexan-5-yl)-6,7-dihydropyrazolo[1,5-a]pyrazine-3,5(4H)-dicarboxamide] yielded an IC50 (CK1δ; read-out: CK1δ IC50 range) of 0.01 to 10 nM and an IC50 (CK1ε; read-out: CK1ε IC50 range) of 0.01 to 10 nM.

`CC(C)(NC(=O)N1CCn2nc(-c3ccc(F)c(Cl)c3)c(C(N)=O)c2C1)C(=O)N1CCCC1` [Compound 215, 2-(3-Chloro-4-fluorophenyl)-N^5-(2-methyl-1-oxo-1-(pyrrolidin-1-yl)propan-2-yl)-6,7-dihydropyrazolo [1,5-a]pyrazine-3,5(4H)-dicarboxamide] was tested, and the IC50 (CK1δ; read-out: CK1δ IC50 range) was 0.01 to 10 nM and the IC50 (CK1ε; read-out: CK1ε IC50 range) was 10 to 100 nM.

Compound `N#Cc1ccc(C2(NC(=O)N3CCn4nc(-c5ccc(Cl)c(Cl)c5)c(C(N)=O)c4C3)CC(F)(F)C2)cc1` [Compound 316, N^5-(1-(4-Cyanophenyl)-3,3-difluorocyclobutyl)-2-(3,4-dichlorophenyl)-6,7-dihydropyrazolo[1,5-a]pyrazine-3,5(4H)-dicarboxamide] has an IC50 (CK1δ; read-out: CK1δ IC50 range) of 0.01 to 10 nM and an IC50 (CK1ε; read-out: CK1ε IC50 range) of 0.01 to 10 nM.

`CC(C)(C)NC(=O)N1CCn2nc(-c3ccnc(F)c3)c(C(N)=O)c2C1` [Compound 112, N^5-(tert-Butyl)-2-(2-fluoropyridin-4-yl)-6,7-dihydropyrazolo[1,5-a] pyrazine-3,5(4H)-dicarboxamide] gave an IC50 (CK1δ; read-out: CK1δ IC50 range) of 10 to 100 nM and an IC50 (CK1ε; read-out: CK1ε IC50 range) of 100 to 2000 nM.

In the case of `NC(=O)c1c(-c2cccc(F)c2)nn2c1CN(C(=O)Nc1ccc(F)cc1Cl)CC2` [Compound 32, N^5-(2-Chloro-4-fluorophenyl)-2-(3-fluorophenyl)-6,7-dihydropyrazolo[1,5-a]pyrazine-3,5(4H)-dicarboxamide], the IC50 (CK1δ; read-out: CK1δ IC50 range) is reported as 10 to 100 nM and the IC50 (CK1ε; read-out: CK1ε IC50 range) is reported as 10 to 100 nM.

`N#Cc1ccc(NC(=O)N2CCn3nc(-c4cccc(F)c4)c(C(N)=O)c3C2)cc1` [Compound 61, N^5-(4-Cyanophenyl)-2-(3-fluorophenyl)-6,7-dihydropyrazolo[1,5-a]pyrazine-3,5(4H)-dicarboxamide] gave an IC50 (CK1δ; read-out: CK1δ) of 2.6 nM, an IC50 (CK1δ; read-out: CK1δ IC50 range) of 0.01 to 10 nM and an IC50 (CK1ε; read-out: CK1ε) of 5 nM. It also gave an IC50 (CK1ε; read-out: CK1ε IC50 range) of 0.01 to 10 nM.

Work on `NC(=O)c1c(-c2cccc(Cl)c2)nn2c1CN(C(=O)NC13C4C5C1C1C3C4C51F)CC2` (centres unmarked) [Compound A88, N^5-(4-Fluorocuban-1-yl)-2-(3-chlorophenyl)-6,7-dihydropyrazolo[1,5-a]pyrazine-3,5(4H)-dicarboxamide] yielded an IC50 (CK1δ; read-out: CK1δ IC50 range) of 0.01 to 10 nM and an IC50 (CK1ε; read-out: CK1ε IC50 range) of 0.01 to 10 nM.

`NC(=O)c1c(-c2ccc(F)c(Cl)c2)nn2c1CN(C(=O)NC1(C(F)F)CCC1)CC2` [Compound 235, 2-(3-Chloro-4-fluorophenyl)-N^5-(1-(difluoromethyl)cyclobutyl)-6,7-dihydro pyrazolo[1,5-a]pyrazine-3,5(4H)-dicarboxamide] was tested, and the IC50 (CK1δ; read-out: CK1δ IC50 range) was 0.01 to 10 nM and the IC50 (CK1ε; read-out: CK1ε IC50 range) was 0.01 to 10 nM.

Work on `NC(=O)c1c(-c2ccc(Cl)c(Cl)c2)nn2c1CN(C(=O)N[C@@H]1CC[C@H]1COC(F)F)CC2` [Compound 243, 2-(3,4-Dichlorophenyl)-N^5-((1R,2R)-2-((difluoromethoxy)methyl)cyclobutyl)-6,7-dihydropyrazolo[1,5-a] pyrazine-3,5(4H)-dicarboxamide] yielded an IC50 (CK1δ; read-out: CK1δ IC50 range) of 0.01 to 10 nM and an IC50 (CK1ε; read-out: CK1ε IC50 range) of 0.01 to 10 nM.

Work on `CC(C)(C)NC(=O)N1CCn2nc(-c3ccccc3)c(C(N)=O)c2C1` [Compound 116, N^5-(tert-Butyl)-2-phenyl-6,7-dihydropyrazolo[1,5-a] pyrazine-3,5(4H)-dicarboxamide] yielded an IC50 (CK1δ; read-out: CK1δ) of 18.2 nM, an IC50 (CK1δ; read-out: CK1δ IC50 range) of 10 to 100 nM and an IC50 (CK1ε; read-out: CK1ε) of 79.8 nM. For the same compound, the IC50 (CK1ε; read-out: CK1ε IC50 range) was 10 to 100 nM.

Compound `NC(=O)c1c(-c2cccc(F)c2)nn2c1CN(C(=O)NC1CCN(S(=O)(=O)C3CC3)CC1)CC2` [Compound 102, N^5-(1-(Cyclopropylsulfonyl)piperidin-4-yl)-2-(3-fluorophenyl)-6,7-dihydropyrazolo[1,5-a]pyrazine-3,5(4H)-dicarboxamide] has an IC50 (CK1ε; read-out: CK1ε IC50 range) of 10 to 100 nM.

`CSc1cccc(-c2nn3c(c2C(N)=O)CN(C(=O)NC(C)(C)C)CC3)c1` [Compound 150, N^5-(tert-Butyl)-2-(3-(methylthio)phenyl)-6,7-dihydropyrazolo[1,5-a] pyrazine-3,5(4H)-dicarboxamide] showed an IC50 (CK1ε; read-out: CK1ε IC50 range) of 10 to 100 nM.

In the case of `Cc1ccc(NC(=O)N2CCn3nc(-c4cccc(F)c4)c(C(N)=O)c3C2)cn1` [Compound 86, 2-(3-Fluorophenyl)-N^5-(6-methylpyridin-3-yl)-6,7-dihydropyrazolo[1,5-a]pyrazine-3,5(4H)-dicarboxamide], the IC50 (CK1ε; read-out: CK1ε IC50 range) is reported as 10 to 100 nM.

`NC(=O)c1c(-c2cccc(F)c2)nn2c1CN(C(=O)Nc1ccc(F)c(F)c1)CC2` [Compound 29, N^5-(3,4-Difluorophenyl)-2-(3-fluorophenyl)-6,7-dihydropyrazolo[1,5-a]pyrazine-3,5(4H)-dicarboxamide] was tested, and the IC50 (CK1ε; read-out: CK1ε IC50 range) was 10 to 100 nM.

With `NC(=O)c1c(-c2cccc(F)c2)nn2c1CN(C(=O)Nc1ccc(F)nc1)CC2` [Compound 87, 2-(3-Fluorophenyl)-N^5-(6-fluoropyridin-3-yl)-6,7-dihydropyrazolo[1,5-a]pyrazine-3,5(4H)-dicarboxamide] the IC50 (CK1ε; read-out: CK1ε IC50 range) was 10 to 100 nM.

`CC(C)(C)NC(=O)N1Cc2c(C(N)=O)c(-c3ccc(F)c(Cl)c3)nn2CC12CC2` [Compound 350, N^5′-(tert-Butyl)-2′-(3-chloro-4-fluorophenyl)-4′H-spiro[cyclopropane-1,6′-pyrazolo[1,5-a]pyrazine]-3′,5′(7′H)-dicarboxamide] showed an IC50 (CK1ε; read-out: CK1ε IC50 range) of 100 to 2000 nM.

For `NC(=O)c1c(-c2cccc(F)c2)nn2c1CN(C(=O)Nc1cccnc1)CC2` [Compound 68, 2-(3-Fluorophenyl)-N^5-(pyridin-3-yl)-6,7-dihydropyrazolo[1,5-a]pyrazine-3,5(4H)-dicarboxamide], the IC50 (CK1ε; read-out: CK1ε IC50 range) was 10 to 100 nM.
